SMILES strings stand for the structures. Active and inactive are the calls of the source. The rule behind the calls is not given here.

A short description of series [1]: Drug metabolism in rat liver microsomes assessed as formation of (S)-1-Benzoyl-N-(5,6-dihydroxybenzo[d]thiazol-2-yl)pyrrolidine-2-carboxamide in presence of NADPH generating system by LC-MS/MS analysis. The format is ADME, Microsome.
The nature of series [2]: Drug metabolism in rat liver microsomes assessed as formation of (R)-N-(5,6-Dihydroxybenzo[d]thiazol-2-yl)-1-tosylpyrrolidine-2-carboxamide in presence of NADPH generating system by LC-MS/MS analysis. The format is ADME, Microsome.
Another series deals with A549. The experiment in a line: Cytotoxicity against human A549 cells assessed as reduction in cell viability up to 5 uM by Presto blue cell viability reagent based assay.
The test system of series [3] is Zika virus. Kind of series: Antiviral activity against Zika virus Uganda infected in human A549 cells assessed as reduction in viral RNA at 5 uM measured after 24 to 72 hrs post infection by RT-qPCR analysis. Type of series: functional, organism-based. A general note: Real-time PCR tracks product formation cycle by cycle.
Series [4] in a line: Drug metabolism in rat liver microsomes assessed as formation of (R)-N-(5,6-Dimethoxybenzo[d]thiazol-2-yl)-1-((4-(hydroxymethyl) phenyl) sulfonyl)pyrrolidine-2-carboxamide in presence of NADPH generating system by LC-MS/MS analysis. Type of series: ADME, Microsome. A general note: Microsomes from liver hold many membrane-bound enzymes, among them those of drug oxidation.
For series [5], the system named is Zika virus. Kind of series: Antiviral activity against Zika virus French Polynesia infected in human A549 cells assessed as reduction in viral RNA at 5 uM measured after 24 to 72 hrs post infection by RT-qPCR analysis. The format is functional, organism-based.
Series [6] has as its system dengue virus type 2. The experiment in a line: Antiviral activity against Dengue virus 2 infected in African green monkey Vero cells assessed as suppression of viral replication at 10 uM pre-incubated with cells for 1 hr before viral infection and measured after 4 days by RT-qPCR analysis. The format is functional, organism-based.
Series [7] can be described thus: Permeability in human C2BBe1 cells at 10 uM incubated for 3 hrs by LC-MS analysis relative to control. The format is ADME, cell-based. As to conditions: c2bbe1, 3 h.
Series [8] can be described thus: Drug metabolism in rat liver microsomes assessed as formation of (S)-N-(5,6-Dimethoxybenzo[d]thiazol-2-yl)-1-((4-(hydroxymethyl) phenyl) sulfonyl)pyrrolidine-2-carboxamide in presence of NADPH generating system by LC-MS/MS analysis. Type of series: ADME, Microsome.
For series [9], the system named is Zika virus. The experiment in a line: Antiviral activity against Zika virus infected in African green monkey Vero cells assessed as suppression of viral replication at 10 uM pre-incubated with cells for 1 hr before viral infection and measured after 4 days by RT-qPCR analysis. Type of series: functional, organism-based.
A short description of series [10]: Inhibition of N-terminal hexa-histidine tagged Dengue virus 2 NS2B/NS3 protease I30A/L31A mutant expressed in Escherichia coli BL21-Gold (DE3) using fluorogenic AMC-substituted peptide boc-GRR-7-amino-4-methylcoumarin measured every 30 secs for 10 mins by fluorometric assay. Also noted: species or system dengue virus type 2.
Series [11] deals with T1, Nonstructural protein 3 (Zika virus, UniProt A0A024AXB9). The experiment in a line: Non-competitive inhibition of N-terminal hexa-histidine tagged Zika virus NS2B/NS3 protease expressed in Escherichia coli BL21-Gold (DE3) using 50 to 200 uM fluorogenic AMC-substituted peptide boc-GRR-7-amino-4-methylcoumarin measured every 30 secs for 10 mins by fluorometric assay based Dixon plot analysis.
T1 sequence (A0A024AXB9 whole entry): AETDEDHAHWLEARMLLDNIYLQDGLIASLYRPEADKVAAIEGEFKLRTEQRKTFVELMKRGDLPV

In series [12] the target is T1, Nonstructural protein 3. The experiment in a line: Inhibition of N-terminal hexa-histidine tagged Zika virus NS2B/NS3 protease expressed in Escherichia coli BL21-Gold (DE3) using fluorogenic AMC-substituted peptide boc-GRR-7-amino-4-methylcoumarin measured every 30 secs for 10 mins by fluorometric assay.
Series [13] concerns Zika virus. Kind of series: Antiviral activity against Zika virus French Polynesia infected in African green monkey Vero cells assessed as reduction in plaque forming units at 5 uM measured after 96 hrs by crystal violet staining based assay. Type of series: functional, organism-based.
Series [14] concerns Zika virus. The experiment in a line: Antiviral activity against Zika virus Uganda infected in African green monkey Vero cells assessed as reduction in plaque forming units at 5 uM measured after 96 hrs by crystal violet staining based assay. Type of series: functional, organism-based.
Series [15] addresses Nonstructural protein 3 (Zika virus) (UniProt A0A024AXB9). Kind of series: Inhibition of N-terminal hexa-histidine tagged Zika virus NS2B/NS3 protease expressed in Escherichia coli BL21-Gold (DE3) at 20 uM using fluorogenic AMC-substituted peptide boc-GRR-7-amino-4-methylcoumarin measured every 30 secs for 10 mins by fluorometric assay relative to control.
Series [16] has as its system dengue virus type 2. Kind of series: Inhibition of N-terminal hexa-histidine tagged Dengue virus 2 NS2B/NS3 protease I30A/L31A mutant expressed in Escherichia coli BL21-Gold (DE3) at 20 uM using fluorogenic AMC-substituted peptide boc-GRR-7-amino-4-methylcoumarin measured every 30 secs for 10 mins by fluorometric assay relative to control.
For series [17], the system named is Zika virus. The experiment in a line: Antiviral activity against Zika virus infected in human A549 cells assessed as induction of redistribution of the ZIKV Env protein from ER to cytoplasm at 0.5 uM by confocal scanning microscopy. The format is functional, organism-based.
Series [18] is described as follows: Inhibition of N-terminal hexa-histidine tagged Dengue virus 2 NS2B/NS3 protease I30A/L31A/T120C mutant expressed in Escherichia coli BL21-Gold (DE3) in presence of N-ethylmaleimide using fluorogenic AMC-substituted peptide boc-GRR-7-amino-4-methylcoumarin measured every 30 secs for 10 mins by fluorometric assay. Details: species or system dengue virus type 2.

In series [19] the target is T1, Nonstructural protein 3. Kind of series: Inhibition of Zika virus NS2B/NS3 protease.
A short description of series [20]: Inhibition of N-terminal hexa-histidine tagged Dengue virus 2 NS2B/NS3 protease I30A/L31A/T120C mutant expressed in Escherichia coli BL21-Gold (DE3) in presence of N-benzylmaleimide using fluorogenic AMC-substituted peptide boc-GRR-7-amino-4-methylcoumarin measured every 30 secs for 10 mins by fluorometric assay. Details: species or system dengue virus type 2.

Series [21] in a line: Inhibition of N-terminal hexa-histidine tagged Dengue virus 2 NS2B/NS3 protease I30A/L31A mutant expressed in Escherichia coli BL21-Gold (DE3) in presence of N-ethylmaleimide using fluorogenic AMC-substituted peptide boc-GRR-7-amino-4-methylcoumarin measured every 30 secs for 10 mins by fluorometric assay. Details: species or system dengue virus type 2.
The nature of series [22]: Inhibition of N-terminal hexa-histidine tagged Dengue virus 2 NS2B/NS3 protease I30A/L31A/T118C mutant expressed in Escherichia coli BL21-Gold (DE3) in presence of N-benzylmaleimide using fluorogenic AMC-substituted peptide boc-GRR-7-amino-4-methylcoumarin measured every 30 secs for 10 mins by fluorometric assay. Details: species or system dengue virus type 2.
Series [23] is described as follows: Inhibition of N-terminal hexa-histidine tagged Dengue virus 2 NS2B/NS3 protease I30A/L31A/T118C mutant expressed in Escherichia coli BL21-Gold (DE3) using fluorogenic AMC-substituted peptide boc-GRR-7-amino-4-methylcoumarin measured every 30 secs for 10 mins by fluorometric assay. Also noted: species or system dengue virus type 2.
Series [24] can be described thus: Inhibition of N-terminal hexa-histidine tagged Dengue virus 2 NS2B/NS3 protease I30A/L31A/T120C mutant expressed in Escherichia coli BL21-Gold (DE3) using fluorogenic AMC-substituted peptide boc-GRR-7-amino-4-methylcoumarin measured every 30 secs for 10 mins by fluorometric assay. Also noted: species or system dengue virus type 2.
The nature of series [25]: Inhibition of N-terminal hexa-histidine tagged Dengue virus 2 NS2B/NS3 protease I30A/L31A/T122C mutant expressed in Escherichia coli BL21-Gold (DE3) using fluorogenic AMC-substituted peptide boc-GRR-7-amino-4-methylcoumarin measured every 30 secs for 10 mins by fluorometric assay. Also noted: species or system dengue virus type 2.
Series [26] is described as follows: Inhibition of N-terminal hexa-histidine tagged Dengue virus 2 NS2B/NS3 protease I30A/L31A mutant expressed in Escherichia coli BL21-Gold (DE3) in presence of N-benzylmaleimide using fluorogenic AMC-substituted peptide boc-GRR-7-amino-4-methylcoumarin measured every 30 secs for 10 mins by fluorometric assay. Details: species or system dengue virus type 2.
The nature of series [27]: Inhibition of N-terminal hexa-histidine tagged Dengue virus 2 NS2B/NS3 protease I30A/L31A/T122C mutant expressed in Escherichia coli BL21-Gold (DE3) in presence of N-benzylmaleimide using fluorogenic AMC-substituted peptide boc-GRR-7-amino-4-methylcoumarin measured every 30 secs for 10 mins by fluorometric assay. Details: species or system dengue virus type 2.
The nature of series [28]: Inhibition of N-terminal hexa-histidine tagged Dengue virus 2 NS2B/NS3 protease I30A/L31A/T122C mutant expressed in Escherichia coli BL21-Gold (DE3) in presence of N-ethylmaleimide using fluorogenic AMC-substituted peptide boc-GRR-7-amino-4-methylcoumarin measured every 30 secs for 10 mins by fluorometric assay. Details: species or system dengue virus type 2.

Chain of Nonstructural protein 3 (Zika virus) (A0A024AXB9 as listed by the source): as the sequence (A0A024AXB9 whole entry) above

Turning to `COc1cc2nc(NC(=O)[C@H]3CCCN3S(=O)(=O)c3ccc(C)cc3)sc2cc1OC`, the Drug metabolism entry in [1], in series [2], in [4] and in series [8] was “Metabolite_Detected” in each case. The Activity result with A549 was “Non-Toxic”. In addition, the result in the series with Zika virus [3], with Zika virus [5] and with Zika virus [9] was inactive. Also, in the series with dengue virus type 2 [6], the outcome was Active. This molecule gave a permeability in [7] of 91%.

As usually defined, the IC50 is the concentration that inhibits the measured activity by half. Turning to `Cc1ccc(S(=O)(=O)Nc2ccccc2C(=O)Nc2nc3cc(O)c(O)cc3s2)cc1`, the IC50 was 15.3 µM in series [10], 5.36 µM on Nonstructural protein 3 [11] and 6.43 µM against Nonstructural protein 3 [12].

Turning to `COc1ccc2cc(Oc3ccccc3C(=O)Nc3nc4cc(OC)c(OC)cc4s3)ccc2c1`, the outcome in the series with Zika virus [13], in the series with Zika virus [3], in the series with Zika virus [14], with Zika virus [5] and in the series on Zika virus [17] was Active. For the same molecule, in the series on A549, the Activity result is “Non-Toxic”. Also, the inhibition result (in [15]; in the series on dengue virus type 2 [16]) was “inactive” in each case. In addition, the result in the series on Zika virus [9] was inactive.

With `O=C(Nc1nc2cc(O)c(O)cc2s1)c1ccccc1Oc1ccc2cc(O)ccc2c1`, the IC50 is 8.53 µM in series [18]; 1.42 µM against Nonstructural protein 3 [19]; 12.6 µM in series [20]; 4.11 µM in [21]; 4.2 to 4.22 µM in [10]; 7.06 µM in series [22]. Also, the IC50 in series [23] was determined as 1 µM; in [24], 1.97 µM; on Nonstructural protein 3 [12], 1.41 µM; in [25], 2.67 µM; in series [26], 4.96 µM; in [27], 15.8 µM. Moreover, the concentration for half-maximal inhibition (IC50) in [28] stood at 14.1 µM. Also, the Activity entry in the series on A549 is listed as “Non-Toxic”. Also, the result with Zika virus [3], with Zika virus [5], in the series with Zika virus [17] and in the series on Zika virus [9] was inactive.

These data come from ChEMBL document CHEMBL4334527, “Proline-Based Allosteric Inhibitors of Zika and Dengue Virus NS2B/NS3 Proteases” (J Med Chem, 2019).
